Here are results for three molecules from ChEMBL document CHEMBL1152309, “Isolation of 2-pyridone alkaloids from a New Zealand marine-derived penicillium species” (J Nat Prod, 2009).

In brackets after ≈: the same amount, converted by molar mass. Bounds are passed on as bounds.

In assay [1] the test system is P388. Kind of assay: Cytotoxicity against mouse P388 cells. In kind it is functional, cell-based.
Assay [2] relates to Candida albicans. The assay is described as follows: Antifungal activity against Candida albicans at 30 ug/disk by disc-diffusion assay. The class given is functional. The settings on record: read-out: IZ. For orientation: A growth-free zone around the sample is the usual read-out of agar diffusion tests.
In assay [3] the test system is Bacillus subtilis. The assay is described as follows: Antibacterial activity against Bacillus subtilis at 30 ug/disk by disc-diffusion assay. The class given is functional. The settings on record: read-out: IZ.

The term IC50 denotes the midpoint of a concentration-inhibition curve. Low values mean greater potency, high ones weaker potency. In turn, `C[C@@H]1C[C@H](C)[C@@H](c2c(O)cc[nH]c2=O)[C@H](C)[C@@](C)(O)C1` [DEOXYAKANTHOMYCIN] showed an IC50 in assay [1] of more than 12.5 µg/mL. Regarding `C[C@@H]1C[C@H](C)[C@H]2c3c(ccn(O)c3=O)O[C@H](C)[C@@]2(C)C1`, the zone of inhibition at 30 µg/disc in assay [2] was 11 mm; in assay [3] it was 8 mm. This molecule also registered a concentration for half-maximal inhibition (IC50) in assay [1] of 1.8 µg/mL (≈ 6.49 µM). Molecule `C[C@@H]1C[C@H](C)[C@H]2c3c(cc[nH]c3=O)O[C@H](C)[C@@]2(C)C1` showed an IC50 in assay [1] of more than 12.5 µg/mL.
